Our source for the IC50 values is US20250122160A1, “PROTEIN TYROSINE PHOSPHATASE INHIBITORS AND METHODS OF USE THEREOF” (Calico Life Sciences LLC, priority 0001, published 2025).

Assay [1] concerns the target T1, His tagged full-length PTPN1 protein (Homo sapiens, UniProt P18031).
T1 construct: made in house
T1 sequence (P18031 with tags, fused parts or gaps): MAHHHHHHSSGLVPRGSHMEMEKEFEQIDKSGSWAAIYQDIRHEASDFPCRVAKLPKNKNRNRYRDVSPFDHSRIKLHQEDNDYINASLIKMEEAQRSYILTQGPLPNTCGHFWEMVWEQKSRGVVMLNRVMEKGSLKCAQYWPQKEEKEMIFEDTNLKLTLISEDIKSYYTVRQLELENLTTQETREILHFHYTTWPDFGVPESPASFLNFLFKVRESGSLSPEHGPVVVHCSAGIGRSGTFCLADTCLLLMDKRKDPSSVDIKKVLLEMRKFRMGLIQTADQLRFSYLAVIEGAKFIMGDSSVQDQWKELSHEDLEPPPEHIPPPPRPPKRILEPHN
As to the kind of experiment: Mobility shift assay (MSA) to determine potency of PTPN1 inhibitors. The format is biochemical. The conditions noted are these: 0.5 nM enzyme, 2 μM substrate. As to the method:
Compound activity was determined using in house His tagged full-length PTPN1 protein (SEQ ID NO: 3) in an in vitro enzymatic reaction. The enzymatic assay used to determine activity is a mobility shift assay using a LabChip EZ Reader by Caliper Life Sciences. The enzymatic reaction was carried out in assay buffer (50 mM HEPES pH 7.5, 1 mM EGTA, 10 mM EDTA. 0.01% Tween® 20, and 2 mM DTT). The compounds were dispensed on a white 384 well ProxiPlate™ (PerkinElmer Cat #6008289) plate using a Labcyte Echo® liquid handler at varying concentrations (12 point, 1:3 dilution). The enzyme (at 0.5 nM) was incubated with compound for 10 minutes at room temperature. Then the substrate (phosphorylated insulin receptor probe sequence: ((OG488)-(NH—CH2—CH2—O—CH2—CH2—O—CH2—CO)-T-R-D-I-(PY)-E-T-D-Y—Y—R—K—K—NH2) (SEQ ID NO: 2) was added at 2 μM to the plates and incubated for another 10 minutes at room temperature. Finally, a quench solution (water and 4-bromo-3-(2-oxo-2-propoxyethoxy)-5-(3-{[1-(phenylmethanesulfonyl)piperidin-4-yl]amino}phenyl)thiophene-2-carboxylic acid) was added to the plates, which were then run on the EZ Reader (excitation 488 nm, emission 530 nm) to measure % conversion (the amount of phosphorylated substrate which was de-phosphorylated by PTPN1). […] The % inhibition was then used to calculate the IC50 values.

Assay [2] addresses T2, His tagged PTPN2 (TC45) protein (Homo sapiens, UniProt P17706).
T2 construct: made in house
T2 sequence (P17706 with tags, fused parts or gaps isoform P17706-2): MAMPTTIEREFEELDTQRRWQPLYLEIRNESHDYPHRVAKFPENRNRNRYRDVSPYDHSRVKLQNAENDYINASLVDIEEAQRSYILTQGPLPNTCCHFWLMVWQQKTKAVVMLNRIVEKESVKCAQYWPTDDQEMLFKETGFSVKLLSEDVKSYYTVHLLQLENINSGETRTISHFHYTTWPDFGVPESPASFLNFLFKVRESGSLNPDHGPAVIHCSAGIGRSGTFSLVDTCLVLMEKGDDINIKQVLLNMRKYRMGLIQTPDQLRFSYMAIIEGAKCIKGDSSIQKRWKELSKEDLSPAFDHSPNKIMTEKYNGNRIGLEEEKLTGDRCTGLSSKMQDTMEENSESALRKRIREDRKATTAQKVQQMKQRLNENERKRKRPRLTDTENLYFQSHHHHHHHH
As to the kind of experiment: Mobility shift assay (MSA) to determine potency of PTPN2 inhibitors. The format is biochemical. The conditions noted are these: 0.5 nM enzyme, 2 μM substrate. As to the method: Compound activity was determined using in house His tagged PTPN2 (TC45) protein (SEQ ID NO: 1) in an in vitro enzymatic reaction. The enzymatic assay used to determine activity was a mobility shift assay using a LabChip EZ Reader by Caliper Life Sciences. The enzymatic reaction was carried out in assay buffer (50 mM HEPES pH 7.5, 1 mM EGTA, 10 mM EDTA, 0.01% Tween® 20, and 2 mM DTT). The compounds were dispensed on a white 384 well ProxiPlate™ (PerkinElmer Catalog #6008289) plate using the Labcyte Echo at varying concentrations (12 point, 1:3 dilution). The enzyme (at 0.5 nM) was incubated with compound for 10 minutes at room temperature. Then the substrate (phosphorylated insulin receptor probe sequence: ((OG488)-(NH—CH2—CH2—O—CH2—CH2—O—CH2—CO)-T-R-D-I-(PY)-E-T-D-Y—Y—R—K—K—NH2) (SEQ ID NO: 2) was added at 2 μM to the plates and incubated for another 10 minutes at room temperature. Finally, a quench solution (water and 4-bromo-3-(2-oxo-2-propoxyethoxy)-5-(3-{[1-(phenylmethanesulfonyl)piperidin-4-yl]amino}phenyl)thiophene-2-carboxylic acid) was added to the plates, which were then run on the EZ Reader (excitation 488 nm, emission 530 nm) to measure % conversion (the amount of phosphorylated substrate which was de-phosphorylated by PTPN2). […] The % inhibition was then used to calculate the IC50 values.

As a reminder, the IC50 is the concentration needed to halve the response being measured.

On to `CCCCCN1CCc2cc(O)c(N3CC(=O)NS3(=O)=O)c(F)c2C1` [Compound 298], for which the half-inhibitory concentration (IC50) in assay [1] and in assay [2] was 10 to 100 nM each time.

As for `CC(C)CCN[C@@H]1COc2cc(O)c(N3CC(=O)NS3(=O)=O)c(F)c2C1` [Compound 372, 5-{(3S)-5-fluoro-7-hydroxy-3-[(3-methylbutyl)amino]-3,4-dihydro-2H-1-benzopyran-6-yl}-1λ^6,2,5-thiadiazolidine-1,1,3-trione], the IC50 in assay [1] and in assay [2] was 10 to 100 nM each time.

Consider `CC1C[C@@H](NC(=O)OC(C)(C)C)Cc2c1cc(O)c(N1CC(=O)NS1(=O)=O)c2F` (mixture of isomers) [Compound 392, tert-butyl [(2R)-8-fluoro-6-hydroxy-4-methyl-7-(1,1,4-trioxo-1λ^6,2,5-thiadiazolidin-2-yl)-1,2,3,4-tetrahydronaphthalen-2-yl]carbamate], for which the IC50 in assay [1] and in assay [2] was 10 to 100 nM in each case.

In the case of `O=C1CN(c2c(O)cc3c(c2F)C[C@H](NCCC2CCOC2)CC3)S(=O)(=O)N1` (stereo partly drawn) [Compound 356, 5-[(7R)-1-fluoro-3-hydroxy-7-{[2-(oxolan-3-yl)ethyl]amino}-5,6,7,8-tetrahydronaphthalen-2-yl]-1λ^6,2,5-thiadiazolidine-1,1,3-trione], the IC50 in assay [1] was 1 to 10 nM; in assay [2], under 1 nM.

For the compound `Cn1cc(CCN2CCc3cc(O)c(N4CC(=O)NS4(=O)=O)c(F)c3C2)cn1` [Compound 252], the IC50 in assay [1] and in assay [2] was over 100 nM in each case.

With `CC(C)CNS(=O)(=O)N1CCc2cc(O)c(N3CC(=O)NS3(=O)=O)c(F)c2C1` [Compound 328, 8-fluoro-6-hydroxy-N-(2-methylpropyl)-7-(1,1,4-trioxo-1λ^6,2,5-thiadiazolidin-2-yl)-3,4-dihydroisoquinoline-2(1H)-sulfonamide], the half-inhibitory concentration (IC50) in assay [1] and in assay [2] was 10 to 100 nM in each case.

`Cc1nn(C)c(C)c1CN1CC(N2CCc3cc(O)c(N4CC(=O)NS4(=O)=O)c(F)c3C2)C1` [Compound 224]: the IC50 in assay [1] is 10 to 100 nM; in assay [2], over 100 nM.

On to `O=C1CN(c2c(O)cc3c(c2F)CN(CCc2cncnc2)CC3)S(=O)(=O)N1` [Compound 210], for which the results for the IC50 in assay [1] and in assay [2] were 10 to 100 nM and over 100 nM, respectively.

With `O=C1CN(c2c(O)cc3c(c2F)CC(NCCC2COC2)CC3)S(=O)(=O)N1` (centres unmarked) [Compound 330, 5-(1-fluoro-3-hydroxy-7-{[2-(oxetan-3-yl)ethyl]amino}-5,6,7,8-tetrahydronaphthalen-2-yl)-1λ^6,2,5-thiadiazolidine-1,1,3-trione], the IC50 in assay [1] and in assay [2] was over 100 nM each time.

As for `CC(C)CCN[C@@H]1CCc2cc(O)c(N3CC(=O)NS3(=O)=O)c(F)c2[C@H]1O` [Compound 406, 5-{(7R,8R)-1-fluoro-3,8-dihydroxy-7-[(3-methylbutyl)amino]-5,6,7,8-tetrahydronaphthalen-2-yl}-1λ^6,2,5-thiadiazolidine-1,1,3-trione], the concentration for half-maximal inhibition (IC50) was over 100 nM in assay [1] and 10 to 100 nM in assay [2].

`O=C1CN(c2c(O)cc3c(c2F)CN(CCC2CCNCC2)CC3)S(=O)(=O)N1` [Compound 230]: the IC50 in assay [1] was 10 to 100 nM; in assay [2], over 100 nM.

For `O=C1CN(c2c(O)cc3c(c2F)C[C@H](NCCC2CCCC2)CC3)S(=O)(=O)N1` [Compound 200, 5-{(7R)-7-[(2-cyclopentylethyl)amino]-1-fluoro-3-hydroxy-5,6,7,8-tetrahydronaphthalen-2-yl}-1λ^6,2,5-thiadiazolidine-1,1,3-trione], the IC50 in assay [1] and in assay [2] was under 1 nM throughout.

For the compound `O=C1CN(c2c(O)cc3c(c2F)C[C@H](NCC2(CF)CC2)CO3)S(=O)(=O)N1` [Compound 381, 5-[(3S)-5-fluoro-3-({[1-(fluoromethyl)cyclopropyl]methyl}amino)-7-hydroxy-3,4-dihydro-2H-1-benzopyran-6-yl]-1λ^6,2,5-thiadiazolidine-1,1,3-trione], the IC50 in assay [1] is over 100 nM; in assay [2], 10 to 100 nM.

Take `O=C1CN(c2c(O)cc3c(c2F)C[C@H](NCCC2CC(F)(F)C2)CC3)S(=O)(=O)N1` [Compound 202]: the IC50 in assay [1] was 1 to 10 nM; in assay [2], under 1 nM.

Regarding `O=C1CN(c2c(O)cc3c(c2F)C[C@H](NCCCC(F)F)CO3)S(=O)(=O)N1` [Compound 373, 5-{(3S)-3-[(4,4-difluorobutyl)amino]-5-fluoro-7-hydroxy-3,4-dihydro-2H-1-benzopyran-6-yl}-1λ^6,2,5-thiadiazolidine-1,1,3-trione], the figures for the IC50 in assay [1] and in assay [2] were 10 to 100 nM and 1 to 10 nM, respectively.

`NC[C@H]1CCc2cc(O)c(N3CC(=O)NS3(=O)=O)c(F)c2C1` [Compound 404, 5-[(7S)-7-(aminomethyl)-1-fluoro-3-hydroxy-5,6,7,8-tetrahydronaphthalen-2-yl]-1λ^6,2,5-thiadiazolidine-1,1,3-trione]: the half-maximal inhibitory concentration (IC50) in assay [1] and in assay [2] was 10 to 100 nM each time.

On to `CC(C)CCN[C@@H]1CCc2c(F)c(O)c(N3CC(=O)NS3(=O)=O)c(F)c2C1` [Compound 331, 5-{(7R)-1,4-difluoro-3-hydroxy-7-[(3-methylbutyl)amino]-5,6,7,8-tetrahydronaphthalen-2-yl}-1λ^6,2,5-thiadiazolidine-1,1,3-trione], for which the IC50 in assay [1] and in assay [2] was 1 to 10 nM in each case.

As to `CC(CN[C@@H]1CCc2cc(O)c(N3CC(=O)NS3(=O)=O)c(F)c2C1)C(F)(F)F` (stereo partly drawn) [Compound 348, 5-{(7R)-1-fluoro-3-hydroxy-7-[(3,3,3-trifluoro-2-methylpropyl)amino]-5,6,7,8-tetrahydronaphthalen-2-yl}-1λ^6,2,5-thiadiazolidine-1,1,3-trione], the IC50 in assay [1] was in the range of 10 to 100 nM; in assay [2], 1 to 10 nM.

Turning to `O=C1CN(c2c(O)cc3c(c2F)CN(C2CC4(CNC4)C2)CC3)S(=O)(=O)N1` [Compound 160], the IC50 in assay [1] and in assay [2] was 10 to 100 nM throughout.

Turning to `NC[C@@H]1CCc2cc(O)c(N3CC(=O)NS3(=O)=O)c(F)c2C1` [Compound 405, 5-[(7R)-7-(aminomethyl)-1-fluoro-3-hydroxy-5,6,7,8-tetrahydronaphthalen-2-yl]-1λ^6,2,5-thiadiazolidine-1,1,3-trione], the IC50 in assay [1] and in assay [2] was 10 to 100 nM each time.

In the case of `O=C1CN(c2c(O)cc3c(c2F)CN(CCCC2CCCCC2)CC3)S(=O)(=O)N1` [Compound 286], the IC50 in assay [1] and in assay [2] was 1 to 10 nM throughout.

On to `CC(C)CCS(=O)(=O)NC1CCc2cc(O)c(N3CC(=O)NS3(=O)=O)c(F)c2C1` (centres unmarked) [Compound 332, N-[8-fluoro-6-hydroxy-7-(1,1,4-trioxo-1λ^6,2,5-thiadiazolidin-2-yl)-1,2,3,4-tetrahydronaphthalen-2-yl]-3-methylbutane-1-sulfonamide], for which the IC50 in assay [1] and in assay [2] was 10 to 100 nM each time.
